Consider 9 compounds from patent US12344603B2 (Genentech, Inc., priority 2020, dated 2025).

This assay concerns the target IRE1α (Homo sapiens (Human), UniProt O75460, D688N). The assay is described as follows: IRE1α TR-FRET competition binding assay (IRE1α HTRF). The conditions noted are these: TR-FRET competition binding to kinase domain of IRE1α. Put shortly: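 Kinase domain (0.25 nM) pre-bound to 2 nM Eu anti-His antibody for 1 h at 4° C in HEPES pH 7.5/MgCl2/Brij 35/DTT/gamma globulin buffer, then mixed with compounds and 2 nM Alexa 647 ATP-competitive probe. 1 h at room temperature; probe displacement read as TR-FRET (Ex 347 nm, Em 665/615 nm).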

IRE1α, sequence (O75460 547-977 D688N): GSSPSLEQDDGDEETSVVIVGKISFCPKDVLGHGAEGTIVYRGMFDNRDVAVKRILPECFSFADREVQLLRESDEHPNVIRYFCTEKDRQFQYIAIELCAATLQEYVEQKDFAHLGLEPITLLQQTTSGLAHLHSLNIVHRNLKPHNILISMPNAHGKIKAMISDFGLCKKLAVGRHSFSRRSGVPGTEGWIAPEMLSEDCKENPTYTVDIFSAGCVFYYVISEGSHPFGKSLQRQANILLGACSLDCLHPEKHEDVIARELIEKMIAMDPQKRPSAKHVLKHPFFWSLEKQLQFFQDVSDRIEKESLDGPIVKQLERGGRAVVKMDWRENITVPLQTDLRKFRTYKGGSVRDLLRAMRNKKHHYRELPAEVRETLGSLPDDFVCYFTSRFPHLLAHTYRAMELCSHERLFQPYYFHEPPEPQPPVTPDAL

`CC(C)n1c(=O)c(-c2cc(F)c(NS(=O)(=O)CCC(F)(F)F)c(F)c2F)cc2cnc(N[C@H]3CC[C@H](N(C)C)CC3)nc21` [Compound 25, N-(4-(2-(((1r,4r)-4-(Dimethylamino)cyclohexyl)amino)-8-isopropyl-7-oxo-7,8-dihydropyrido[2,3-d]pyrimidin-6-yl)-2,3,6-trifluorophenyl)-3,3,3-trifluoropropane-1-sulfonamide]: the IC50 turned out to be 0.33 nM.

`CC(C)n1c(=O)c(-c2ccc(NS(=O)(=O)Cc3ccc(F)cc3)c(F)c2)nc2cnc(N[C@H]3CC[C@H](N(C)C)[C@@H](F)C3)nc21` (stereo in doubt) [Compound 181B, N-(4-(2-((4-(Dimethylamino)-3-fluorocyclohexyl)amino)-8-isopropyl-7-oxo-7,8-dihydropteridin-6-yl)-2-fluorophenyl)-1-(4-fluorophenyl)methanesulfonamide] registered an IC50 of 0.15 nM.

`CC(C)n1c(=O)c(-c2cc(F)c(NS(=O)(=O)Cc3ccccc3F)c(F)c2F)cc2cnc(N[C@@H]3CNC[C@@H](O)C3)nc21` (racemic) [Compound 87, 1-(2-Fluorophenyl)-N-(2,3,6-trifluoro-4-(2-((5-hydroxypiperidin-3-yl)amino)-8-isopropyl-7-oxo-7,8-dihydropyrido[2,3-d]pyrimidin-6-yl)phenyl)methanesulfonamide]: the IC50 came to 0.63 nM.

In the case of `CCN(C)[C@H]1CC[C@H](Nc2ncc3cc(-c4ccc(NS(=O)(=O)CCC(F)(F)F)c(F)c4)c(=O)n(C(C)C)c3n2)CC1` [Compound 205, N-(4-(2-(((1,4-trans)-4-(Ethyl(methyl)amino)cyclohexyl)amino)-8-isopropyl-7-oxo-7,8-dihydropyrido[2,3-d]pyrimidin-6-yl)-2-fluorophenyl)-3,3,3-trifluoropropane-1-sulfonamide], the IC50 came out at 0.14 nM.

As for `CC(C)n1c(=O)c(-c2c(F)cc(NS(=O)(=O)Cc3ccc(F)cc3)c(F)c2F)cc2cnc(N[C@H]3CC[C@H](N(C)C)CC3)nc21` [Compound 128, N-(4-(2-(((1r,4r)-4-(Dimethylamino)cyclohexyl)amino)-8-isopropyl-7-oxo-7,8-dihydropyrido[2,3-d]pyrimidin-6-yl)-2,3,5-trifluorophenyl)-1-(4-fluorophenyl)methanesulfonamide], the IC50 was determined as 0.15 nM.

Compound `CC(C)n1c(=O)c(-c2ccc(NS(=O)(=O)CCC(F)(F)F)c(F)c2)nc2cnc(N[C@H]3CC[C@H](N(C)C)CC3)nc21` [Compound 67, N-(4-(2-(((1r,4r)-4-(Dimethylamino)cyclohexyl)amino)-8-isopropyl-7-oxo-7,8-dihydropteridin-6-yl)-2-fluorophenyl)-3,3,3-trifluoropropane-1-sulfonamide] displayed an IC50 of 0.18 nM.

Compound `CC(C)n1c(=O)c(-c2ccc(NS(=O)(=O)CCC(F)(F)F)c(F)c2)nc2cnc(N[C@H]3CC[C@H](N(C)CCF)CC3)nc21` [Compound 177, 3,3,3-Trifluoro-N-(2-fluoro-4-(2-(((1r,4r)-4-((2-fluoroethyl)(methyl)amino)cyclohexyl)amino)-8-isopropyl-7-oxo-7,8-dihydropteridin-6-yl)phenyl)propane-1-sulfonamide] had an IC50 of 0.24 nM.

For `CC(C)n1c(=O)c(-c2ccc(NS(=O)(=O)CCC(F)(F)F)cn2)cc2cnc(N[C@H]3CC[C@H](N(C)C)[C@H](F)C3)nc21` [Example 223, N-(6-(2-(((1S,3R,4S)-4-(Dimethylamino)-3-fluorocyclohexyl)amino)-8-isopropyl-7-oxo-7,8-dihydropyrido[2,3-d]pyrimidin-6-yl)pyridin-3-yl)-3,3,3-trifluoropropane-1-sulfonamide], the IC50 came to 0.5 nM.

With `COCCN(C)[C@H]1CC[C@H](Nc2ncc3cc(-c4ccc(NS(=O)(=O)Cc5ccc(F)cc5)c(F)c4)c(=O)n(C(C)C)c3n2)CC1` [Compound 123, N-(2-Fluoro-4-(8-isopropyl-2-(((1r,4r)-4-((2-methoxyethyl)(methyl)amino)cyclohexyl)amino)-7-oxo-7,8-dihydropyrido[2,3-d]pyrimidin-6-yl)phenyl)-1-(4-fluorophenyl)methanesulfonamide], the IC50 worked out at 0.05 nM.
